Like-named read-outs stand apart in the source and are kept apart here.
Tests used:
[1] = test system: Staphylococcus aureus ATCC 6538; details: contact time 5 minutes
Source text: The test substance was hydrogen peroxide at 1 ppm and at 0.3%, which was exposed or not exposed to photons with a wavelength from 0.001 nm-845 nm and applied to target, which included a biological medium inoculated with a viable bacteria concentration of Staphylococcus aureus ATCC 6538. Further, it may be appreciated that the control is the same microorganism.

E. coli = experiment: FIG. 2 microbial reduction by photon enhanced solution; format: cell-based
microbial counts = details: 1 part per million, 5 minute contact time
Source text: In an example embodiment of a system for progressive reduction of the microbial count in ambient air, a room with 1,000,000 colony forming units (CFUs) is equipped with a system for performing the methods as disclosed herein. A small micron photon/phonon enhanced antimicrobial dry fog of an enhanced oxidizing agent is continuously administered into the ambient air through an existing HVAC system at a concentration of less than 1 part per million.

Compound | Average CFU/ML [1] [CFU/ML] | CFU/ML ([1]; Replicate 1) [CFU/ML] | CFU/ML ([1]; Replicate 2) [CFU/ML] | microbial (E. coli) reduction (E. coli) [%] | microbial reduction (microbial counts)
OO [1 ppm H2O2 no photon activation, hydrogen peroxide] | 4.05E+06 | 4.10E+06 | 4.10E+06 | – | –
OO [.3% H2O2 no photon activation, hydrogen peroxide] | 4.05E+06 | 4.10E+06 | 4.00E+06 | – | –
OO [hydrogen peroxide] | – | – | – | 0.0 | –
OO [standard hydrogen peroxide, hydrogen peroxide] | – | – | – | – | little or no microbial reduction

From patent publication US11654413B2, “System and method for enhancing effectiveness of products generated from ionization, oxidation, photooxidation, photocatalytic, and photochemical reactions” (BIS SCIENCE LLC., priority 2021, dated 2023)
